We go through 20 molecules from PubChem BioAssay (NCI).

Among the test systems are NCI-H522 lung; OVCAR-4 ovarian; SNB-19 CNS; KM12 colon; SK-MEL-2 melanoma; HS 578T breast; HCT-116 colon; SF-268 CNS; SF-539 CNS; SR leukemia; DU-145 prostate; MALME-3M melanoma; MCF7 breast.
Common to all, as to assay: DTP human tumour cell line panel, 48 h

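Method: 48-hour compound exposure of cells in 96-well plates, five concentrations, linear interpolation of endpoints. TGI: total growth inhibition.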 Where only a bound is given, the exact number is not on record here.

Regarding `Cc1cccc2c(=O)c3cccc([C@@H](C)C(=O)O)c3oc12`, the TGI in the assay with NCI-H522 lung, with OVCAR-4 ovarian, with SNB-19 CNS, in the assay with KM12 colon, in the assay on SK-MEL-2 melanoma and in the assay on HS 578T breast was greater than 100 µM throughout. The TGI in the assay with HCT-116 colon, with SF-268 CNS, in the assay with SF-539 CNS, in the assay with SR leukemia and in the assay with DU-145 prostate was greater than 100 µM each time.
On to `Cc1ccc(S(=O)(=O)c2c(N)n(CCN(C)C)c3nc4ccccc4nc23)cc1`, for which the TGI (commonly the concentration at which net growth stops) with NCI-H522 lung was 58.7 µM; in the assay on OVCAR-4 ovarian, greater than 100 µM; in the assay on SNB-19 CNS, greater than 100 µM; in the assay on KM12 colon, greater than 100 µM; in the assay with SK-MEL-2 melanoma it was greater than 100 µM; in the assay with MALME-3M melanoma, greater than 100 µM. Besides, the TGI with HCT-116 colon, in the assay with SF-268 CNS and in the assay with SF-539 CNS was greater than 100 µM in each case.
`O=c1[nH]n(Cc2ccccc2Cl)c2ccccc12`: the TGI in the assay with NCI-H522 lung, in the assay on OVCAR-4 ovarian, in the assay with SNB-19 CNS, with KM12 colon, in the assay with SK-MEL-2 melanoma and in the assay with MALME-3M melanoma was greater than 100 µM each time. The TGI in the assay with HS 578T breast, in the assay on HCT-116 colon, with SF-268 CNS, in the assay with SF-539 CNS, in the assay on SR leukemia and in the assay with DU-145 prostate was greater than 100 µM throughout.
For `CC(CCCOC(c1ccccc1)(c1ccccc1)c1ccccc1)OC(=O)Nc1ccccc1` (configuration not stated), the TGI with NCI-H522 lung is 23.9 µM; with OVCAR-4 ovarian it was 25 µM; in the assay on KM12 colon, 27.1 µM; in the assay on MALME-3M melanoma it was 29.6 µM; with HCT-116 colon, 23 µM; in the assay on SF-268 CNS, 25.9 µM. The values for the TGI with SF-539 CNS and in the assay with SR leukemia were 31.7 µM and 44.7 µM, respectively.
With `O=[N+]([O-])c1cccc(C2=NOC3C4CCC(C4)C23)c1` (configuration not stated), the TGI in the assay with NCI-H522 lung, in the assay with OVCAR-4 ovarian, with KM12 colon, with SK-MEL-2 melanoma, with MALME-3M melanoma and in the assay on HCT-116 colon was greater than 100 µM throughout. In addition, the TGI with SF-268 CNS, with SF-539 CNS and in the assay with SR leukemia was greater than 100 µM each time.
On to `O=C(CC1C(=O)c2ccccc2C1=C1C(=O)c2ccccc2C1=O)c1ccccc1` (configuration not stated), for which the TGI in the assay on NCI-H522 lung was 97.3 µM; with OVCAR-4 ovarian, greater than 100 µM; with SNB-19 CNS, greater than 100 µM; with KM12 colon it was greater than 100 µM; with SK-MEL-2 melanoma, greater than 100 µM; in the assay with MALME-3M melanoma, greater than 100 µM. Further, the total growth inhibition concentration (TGI) in the assay with SF-268 CNS and in the assay with SF-539 CNS was greater than 100 µM in each case.
`CC1=C(C(=O)Nc2ccc([N+](=O)[O-])cc2)C(c2ccccc2F)C(C(=O)Nc2ccc([N+](=O)[O-])cc2)=C(C)N1`: the TGI is 35 µM in the assay with NCI-H522 lung; 89.8 µM in the assay on OVCAR-4 ovarian; greater than 100 µM with SNB-19 CNS; 53.9 µM in the assay with KM12 colon; 24.7 µM with SK-MEL-2 melanoma; 42.6 µM in the assay on MALME-3M melanoma. Also, the TGI is 31.5 µM in the assay on HCT-116 colon, greater than 100 µM with SF-268 CNS and greater than 100 µM in the assay with SF-539 CNS.
Take `C=CCN1CN(c2ccccc2)C2(CCN(CCCC3(c4ccc(F)cc4)OCCO3)CC2)C1=O`: the TGI is 36.7 µM in the assay on NCI-H522 lung; 39.9 µM in the assay on SNB-19 CNS; 29.8 µM in the assay with KM12 colon; 30.6 µM in the assay with MALME-3M melanoma; 28.4 µM with HCT-116 colon; 38.5 µM in the assay on SF-268 CNS. Further, the TGI is 30.5 µM in the assay with MCF7 breast, 23.1 µM in the assay with SF-539 CNS, 48.7 µM in the assay on SR leukemia and 61.1 µM in the assay with DU-145 prostate.
In the case of `OC(C/C=N/Nc1ccccc1)(C(F)(F)Cl)C(F)(F)Cl`, the TGI in the assay on NCI-H522 lung, in the assay on OVCAR-4 ovarian, in the assay with SNB-19 CNS, in the assay on KM12 colon, in the assay on SK-MEL-2 melanoma and with MALME-3M melanoma was greater than 10 µM in each case. In addition, the TGI in the assay with HS 578T breast, in the assay on HCT-116 colon, with SF-268 CNS, in the assay on MCF7 breast, with SF-539 CNS and in the assay with DU-145 prostate was greater than 10 µM throughout.
As for `COP(=O)(OC)/C(=C\c1cn(C(c2ccccc2)(c2ccccc2)c2ccccc2)cn1)NC(C)=O`, the TGI in the assay with NCI-H522 lung, with OVCAR-4 ovarian, in the assay on SNB-19 CNS, in the assay on KM12 colon, in the assay on MALME-3M melanoma and with HS 578T breast was greater than 100 µM throughout. Also, the TGI with HCT-116 colon, in the assay with SF-268 CNS, in the assay with MCF7 breast, in the assay with SF-539 CNS, in the assay on SR leukemia and in the assay on DU-145 prostate was greater than 100 µM throughout.
With `O=C1NC2(CCN(CCCC3(c4ccc(F)cc4)OCCO3)CC2)Oc2ccccc21`, the TGI in the assay with OVCAR-4 ovarian, in the assay with SNB-19 CNS, in the assay with KM12 colon, with MALME-3M melanoma, with HCT-116 colon and in the assay on SF-268 CNS was greater than 100 µM in each case. For the same molecule, the TGI in the assay with MCF7 breast, with SF-539 CNS, with SR leukemia and with DU-145 prostate was greater than 100 µM in each case.
Consider `CCC(=O)N/N=C(\C=C\c1cccc(O)c1)c1sc(Nc2ccc(C)cc2[N+](=O)[O-])nc1C`, for which the TGI in the assay on NCI-H522 lung, with OVCAR-4 ovarian, in the assay with SNB-19 CNS, in the assay with KM12 colon, with SK-MEL-2 melanoma and in the assay with MALME-3M melanoma was greater than 100 µM each time. For the same molecule, the concentration for total growth inhibition (TGI) in the assay with HCT-116 colon, with SF-268 CNS, in the assay on SF-539 CNS and in the assay with SR leukemia was greater than 100 µM in each case.
For `CCOC(OC1=C(C#N)CCCC1)C(C)[Se]c1ccccc1` (configuration not stated), the TGI in the assay with NCI-H522 lung was 30.8 µM; in the assay on OVCAR-4 ovarian it was 47.6 µM; with SNB-19 CNS, greater than 100 µM; in the assay on KM12 colon, greater than 100 µM; in the assay with SK-MEL-2 melanoma it was greater than 100 µM; with MALME-3M melanoma, greater than 100 µM. The TGI in the assay with HCT-116 colon is greater than 100 µM; with SF-268 CNS it was 46.6 µM; in the assay on SF-539 CNS it was 38 µM; in the assay on SR leukemia, 63.8 µM.
For the molecule `Cc1ccccc1N=NC(C(=O)c1ccccc1)C(=O)c1ccccc1`, the TGI is 39 µM with NCI-H522 lung; 85.3 µM in the assay on OVCAR-4 ovarian; 85.5 µM in the assay on SNB-19 CNS; greater than 100 µM with KM12 colon; 46.5 µM with SK-MEL-2 melanoma; greater than 100 µM in the assay on MALME-3M melanoma. Further, the TGI in the assay with HCT-116 colon is 54.4 µM; with SF-268 CNS it was greater than 100 µM; with SF-539 CNS it was 81.8 µM.
For the molecule `Cc1ccc(NC(=O)C(=O)Cc2cc[n+]([O-])cc2)cc1`, the TGI in the assay on NCI-H522 lung, in the assay with OVCAR-4 ovarian, in the assay with SNB-19 CNS, in the assay on KM12 colon, in the assay with SK-MEL-2 melanoma and with MALME-3M melanoma was greater than 100 µM each time. The TGI with HCT-116 colon, in the assay on SF-268 CNS, in the assay with SF-539 CNS and in the assay on SR leukemia was greater than 100 µM each time.
Regarding `Cc1cc(N(CCC#N)CCC#N)ccc1C=Nc1ccc(C(=O)NN2C(=O)/C(=C/c3ccc(N(CCC#N)CCC#N)cc3)N=C2c2cc([N+](=O)[O-])ccc2Cl)cc1`, the total growth inhibition concentration (TGI) with OVCAR-4 ovarian, in the assay on SNB-19 CNS, in the assay on KM12 colon, in the assay on SK-MEL-2 melanoma, in the assay with MALME-3M melanoma and with HCT-116 colon was greater than 100 µM each time. For the same molecule, the TGI with SF-268 CNS and in the assay on SF-539 CNS was greater than 100 µM each time.
Take `Cc1cc(Cl)ccc1C1OC(=O)c2c1ccc1ccccc21` (configuration not stated): the TGI in the assay with NCI-H522 lung, in the assay on OVCAR-4 ovarian, in the assay with SNB-19 CNS, in the assay on KM12 colon, in the assay on SK-MEL-2 melanoma and with MALME-3M melanoma was greater than 100 µM in each case. Also, the concentration for total growth inhibition (TGI) with HCT-116 colon, in the assay on SF-268 CNS and in the assay on SF-539 CNS was greater than 100 µM in each case.
As for `CC(=O)C1=CCC2c3[nH]c4ccccc4c3CCN2C1` (configuration not stated), the TGI in the assay on NCI-H522 lung is 65.6 µM; with OVCAR-4 ovarian, greater than 100 µM; with SNB-19 CNS, greater than 100 µM; with KM12 colon, greater than 100 µM; with SK-MEL-2 melanoma, greater than 100 µM; in the assay with MALME-3M melanoma it was greater than 100 µM. For the same molecule, the TGI with HCT-116 colon, in the assay on SF-268 CNS, in the assay on SF-539 CNS and in the assay on SR leukemia was greater than 100 µM throughout.
Take `COc1ccc2c(c1)CCC(OS(=O)(=O)CC13CCC(CC1=O)C3(C)C)C2=O` (configuration not stated): the TGI in the assay with NCI-H522 lung is 53.7 µM; with OVCAR-4 ovarian, greater than 100 µM; in the assay on SNB-19 CNS, greater than 100 µM; in the assay on KM12 colon, 41.1 µM; in the assay on SK-MEL-2 melanoma, 55.8 µM; in the assay on MALME-3M melanoma, greater than 100 µM. Further, the TGI with HCT-116 colon was determined as 53.3 µM; in the assay with SF-268 CNS, 59.8 µM; in the assay with SF-539 CNS, 41.6 µM; with SR leukemia, 73.3 µM.
Regarding `Cn1c2ccccc2c(=O)c2[nH]c3ccccc3c21`, the TGI in the assay with NCI-H522 lung, in the assay with OVCAR-4 ovarian, in the assay on SNB-19 CNS, in the assay with KM12 colon, in the assay with SK-MEL-2 melanoma and in the assay with MALME-3M melanoma was greater than 100 µM each time. The TGI was greater than 100 µM in the assay with HCT-116 colon; 62.4 µM with SF-268 CNS; greater than 100 µM in the assay on MCF7 breast; greater than 100 µM in the assay on SF-539 CNS; greater than 100 µM with DU-145 prostate.
